The values that follow come from patent US7767196B2, “Optimized relaxivity and specificity hepatobiliary MRI contrast agent” (priority 2005, dated 2010).

A word on the LD50: it is the dose at which mortality reaches 50%.

For data set [1] the following is noted: cited from earlier work.
The next data set has as its system rats. Particulars: cited from earlier work.
The test system of data set [2] is liver. Particulars: Schima et al., J. Magn. Res. Imaging 1999; cited from earlier work.
The test system of data set [3] is hepatocytes. The settings on record: cited from earlier work.
The subject of data set [4] is non-tumorigenic immortalized liver cell line (MIHA). Kind of data set: Hepatocellular uptake (ICP-MS of Gd per cell). It counts as cell-based. As to the method:
The non-tumorigenic immortalized liver cell line (MIHA) was grown and incubated in different concentrations of GdL and Gd-BOPTA. The mole of gadolinium uptake per cell under different concentrations of GdL incubation is presented as a function of concentration in FIG. 16. […] The average increase is 7.2×10^−13 mole of Gd per cell (about 1.97 times more than Gd-BOPTA) and the maximum uptake is 3.1×10^−12 mol of Gd per cell at 5 mM. There was no gadolinium ion found in the control experiments in the absence of GdL. The uptake varied slightly at the incubation concentration of less than 0.5 mM and linearly when the concentration increases from 0.5 to 5 mM. […]
The non-tumorigenic immortalized liver cell line (MIHA) (kindly provided by Dr J. R. Chowdhury at the Albert Einstein College of Medicine, New York) was grown in a 96-well plate (polystyrene, flat bottom tissue-culture treated, black with clear bottom) with Dulbecco's modified Eagle's medium (DMEM with 4 mM L-glutamine modified to contain 4.5 g l^−1 glucose and 1.5 g l^−1 sodium bicarbonate) containing 10% Bovine Calf Serum (BCS) in a 5% carbon dioxide incubator. […] The cells were exposed to 100 μl of 0.25% trypsin and harvested, then counted by hemacytometer. […] The samples were analyzed by Agilent 7500a ICP-MS with ICP-MS Top installed.

The subject of data set [5] is hepatocytes. Particulars: cited from earlier work. This is another data set of the same source.
The nature of data set [6]: NMRD profile / relaxometric measurements (1H longitudinal relaxivity, incl. temperature and pH dependence). It counts as physicochemical. Particulars: for R1p: 20 MHz and 25° C.; for relaxivity (NMRD profile): 20 MHz, 7.2 pH and 25° C.; for rGdH / Δ^2 / τr / τv: fitting parameter, NMRD profile. From the text: Relaxivity is used to describe the efficiency of a paramagnetic substance in increasing the water longitudinal relaxation rate. NMRD profiling is a direct method of measuring the proton relaxivity, and in principle it is sensitive to all of the parameters that influence relaxivity. It is the nuclear relaxation rate (1/T1) as a function of the Larmor frequency or the magnetic field, and describes the excess longitudinal proton relaxation that is caused by the presence of contrast agents as a function of the magnetic field using a field-cycling technique. The NMRD profile can probe the relaxivity mechanisms and understand how changes in the chemical structure of the complex interfere with them. The change in experimental parameters such as temperature and pressure influences the physical or chemical state of the sample, but the variation of the magnetic field has no influence on the chemistry of the sample. Thus, NMRD is a useful technique in the understanding of the numerous physiochemical parameters that determine the field dependence of proton relaxivities. The innersphere, outersphere, and second sphere contribute to the overall relaxivity and are influenced by numerous parameters, which are too complex to be well-defined by a single NMRD study; usually, reference to independent ^17O NMR relaxation rates and chemical shift is made. By the equations 2-7, several parameters that are related to the outersphere, and innersphere relaxation, such as the hydration number q, the τm, τR, τv, Δ^2, and rGdH, can be estimated.
As shown in FIGS. 5-8, all complexes have one innersphere water molecule. At low field, the electronic relaxation dominates the dipole-dipole correlation time for innersphere relaxivity and results in the first dispersion at around a […] proton Larmor frequency, while at high field, rotation relaxation dominates and the dispersion is at around 30 MHz. The higher relaxivity as compared to the clinical agents is postulated to the longer reorientational correlation time τR and the shorter rGdH. Relaxivity has a dependence on the τR at 20 MHz, which is determined by the molecular dimension.
The temperature and pH dependence of the longitudinal relaxivity were measured to study the tolerance of the complex under different physiological conditions (see FIGS. 9-10). At the low temperature under the slow exchange rate (τm>>T1M) a relatively longer τm is insignificant. The innersphere quenching is not severed and is not dominated by the outersphere mechanism at 273-278 K. Beyond 278 K the innersphere contribution increases up to 288 K. This is the τm≈T1M region, where the onset of the innersphere and the slow water exchange is not interfered with. From 288 K to 330 K, there is a gradual drop in the relaxivity due to the increase in D and T1M which causes both the innersphere and outersphere relaxivities to fall under the fast exchange condition (τm<<T1M). The relaxivity is 4.93 mM^−1s^−1at physiological temperature. […] The structural arrangement around the metal centre is not severely distorted, which allows a high stability against different pH.
NMRD profiles measure the longitudinal water proton relaxation rate as a function of magnetic fields. Measurements were performed by a Spinmaster FFC fast field cycling NMR relaxometer that covered a continuum of magnetic fields from 0.00024 to 0.47 T. The temperature was controlled by circulating Freon from an external bath and measured by a thermometer that was inserted into the Freon close to the sample. The relaxometer worked under complete control with the reproducibility of the measured T1 values estimated to be ±2%. The NMRD profiles were acquired for a 1-2 mM solution of the complex. Xylenol orange test was employed to check the absence of free Gd(III).

Data set [7] in a line: Variable-temperature 17O NMR transverse relaxation (water exchange). Particulars: for τm: fitting parameter, 17O transverse relaxivity study. It counts as physicochemical. As for the experimental part: Further investigation into the transverse relaxivity changes against temperature as shown in FIG. 6 was performed to determine the exchange rate. The maximum appears at a lower temperature, which implies a faster water exchange rate. The water exchange rates of the discussed ligands are in the order of Gd-BOPTA (kex=5.0×10^6)>Gd-DTPA (kex=4.0×10^6)>Gd-DOTA (kex=3.3×10^6)>GdL (kex=1.1×10^6). As anionic complexes promote water exchange, the first three complexes are anionic species with faster water exchange rates. GdL is neutral with a lower exchange rate, but with a lower osmolality, and importantly, the highest relaxivity.
Variable-temperature ^17O NMR measurements were recorded on a JEOL EX-90 (2.1 T) spectrometer that was equipped with a 5 mm probe, using D2O for external lock of the magnetic field. Experimental settings were spectral width 10000 Hz, pulse width 7 μs, acquisition time 10 ms, 1000 scans, and no sample spinning. The solution used contained ^17O enriched water (2.6%, Yeda, Israel). The observed transverse relaxation rate (R^O2obs) was calculated from the line width of the resonance at half height (Δν1/2): R^O2obs=πΔν1/2.

Data set [8] relates to liver. Particulars: 0.1 mmol kg^−1 dose, intravenous bolus; cited from earlier work.
For data set [9] the following is noted: versus 0.29 osmol kg^−1 of body fluid; cited from earlier work.
Setting [10] is: 20 MHz, temperature in parentheses: 40.

Several values for one entry are separate records, joined by “and”; a condition that tells them apart may be missing. Equal values may be shown once. Read-outs that look alike come from different tables or passages of the source.

Turning to `O=C([O-])CN1CCN(CC(=O)[O-])CCN([C@H](CO)[C@H](O)CO)CCN(CC(=O)[O-])CC1.[Gd+3]` (racemic) [Gd-DO3A-butrol, gadobutrol], the Relaxivity in data set [1] (setting [10]) was 3.60 (40) mM^−1 s^−1.
Turning to `[Gd+3]` [Gd(III) aqua ion], the LD50 in the data set on rats was 0.1 to 0.2 mmol/kg.
Take `CNC(=O)CN(CCN(CCN(CC(=O)[O-])CC(=O)NC)CC(=O)[O-])CC(=O)[O-].[Gd+3]` [Gd-BMA, gadodiamide]: the Relaxivity in [1] (20 MHz and 25° C.) is 4.39 mM⁻¹ s⁻¹.
On to `COCCNC(=O)CN(CCN(CCN(CC(=O)[O-])CC(=O)NCCOC)CC(=O)[O-])CC(=O)[O-].[Gd+3]` [Gd-BMEA, gadoversetamide], for which the Relaxivity in data set [1] (setting [10]) is on record as 4.70 (40) mM^−1 s^−1.
Consider `CNC[C@H](O)[C@@H](O)[C@H](O)[C@H](O)CO.CNC[C@H](O)[C@@H](O)[C@H](O)[C@H](O)CO.O=C([O-])CN(CCN(CC(=O)[O-])CC(=O)O)CCN(CC(=O)O)C(COCc1ccccc1)C(=O)[O-].[Gd+3]` (stereo not shown) [Gd-BOPTA, gadobenate dimeglumine], for which the hepatic intensity enhancement with liver [2] is listed as 55%. In [1] (20 MHz and 25° C.), the Relaxivity was 5.2 mM⁻¹ s⁻¹ and 5.20 mM⁻¹ s⁻¹. For the same compound, the “percentage of contrast agent excreted” value with hepatocytes [3] (humans, intravenous injection) is listed as “over 95%”. Besides, the “hepatic (hepatocellular) uptake” value in the data set with hepatocytes [3] (humans) is reported as 3-5 % of the injected dose. Also, in data set [4], the “dose dependence of uptake” value is reported as “not significant”. Moreover, in the data set with hepatocytes [5] (rats), the hepatocellular uptake was 38.6%. For the same compound, in data set [6], the R1p is 5.20 mM⁻¹ s⁻¹, the “relaxivity (NMRD profile)” value came to 5.20 mM⁻¹ s⁻¹, the rGdH amounted to 2.96 Å and the “Δ^2” value is recorded as 4.2 E19 s^−1. In addition, in [6], the τr amounted to 88 ps and the τv was determined as 26 ps. For the same compound, in [7], the “water exchange rate kex” value is reported as 5.0×10^6 and the τm is 200 ns.
For `CNC[C@H](O)[C@@H](O)[C@H](O)[C@H](O)CO.O=C([O-])CN1CCN(CC(=O)[O-])CCN(CC(=O)O)CCN(CC(=O)[O-])CC1.[Gd+3]` [Gd-DOTA, gadoterate meglumine], in data set [1] (20 MHz and 25° C.), the Relaxivity is 4.73 mM⁻¹ s⁻¹. Further, in data set [6], the R1p was 4.73 mM⁻¹ s⁻¹, the “relaxivity (NMRD profile)” value was 4.73 mM⁻¹ s⁻¹, the rGdH amounted to 3.10 Å and the “Δ^2” value is reported as 1.3 E19 s^−1. In data set [6], this compound yielded a τr of 73 ps and a τv of 7.7 ps. In addition, in [7], the “water exchange rate kex” value is 3.3×10^6 and the τm stood at 300 ns.
Turning to `CNC[C@H](O)[C@@H](O)[C@H](O)[C@H](O)CO.CNC[C@H](O)[C@@H](O)[C@H](O)[C@H](O)CO.O=C([O-])CN(CCN(CC(=O)[O-])CC(=O)O)CCN(CC(=O)[O-])CC(=O)O.[Gd+3]` [Gd-DTPA, gadopentetate dimeglumine], in the data set on liver [8], the tolerance result was “good tolerance”. The Relaxivity in [1] (20 MHz and 25° C.) is 4.69 mM⁻¹ s⁻¹. For the same compound, in data set [6], the R1p is 4.69 mM⁻¹ s⁻¹, the rGdH is listed as 3.10 Å, the “Δ^2” value is 4.2 E19 s^−1 and the τr stood at 73 ps. The compound also yielded a τv in [6] of 20 ps. Moreover, in [9], the osmolality was 1.96 osmol kg^−1. In data set [7], the “water exchange rate kex” value is on record as 4.0×10^6 and the τm was determined as 250 ns.
`CCOc1ccc(C[C@@H](CN(CCN(CC(=O)[O-])CC(=O)[O-])CC(=O)[O-])N(CC(=O)[O-])CC(=O)[O-])cc1.[Gd+3].[Na+].[Na+]` [Gd-EOB-DTPA]: in the data set on hepatocytes [3] (in vivo), the “hepatic (hepatocellular) uptake” value is given as 50 % of the injected dose. Moreover, in the data set on hepatocytes [5] (rat, in vivo), the hepatocellular uptake is on record as 70%.
As to `CC(O)CN1CCN(CC(=O)[O-])CCN(CC(=O)[O-])CCN(CC(=O)[O-])CC1.[Gd+3]` (stereo not shown) [Gd-HP-DO3A, gadoteridol], the Relaxivity in [1] (setting [10]) is recorded as 3.70 (40) mM^−1 s^−1.
